Test results as given in PMC5584945, “Evaluation of robenidine analog NCL195 as a novel broad-spectrum antibacterial agent” (PLoS ONE, 2017).
≈ marks a conversion by molar mass, not a printed value. Entries after “also recorded” stand apart in the source; their conditions may differ. Read-outs that look alike come from different tables or passages of the source.

Tests used:
[1] = test system: S. pneumoniae D39; test: Time-dependent killing assay; assay type: cell-based, Streptococcus pneumoniae
Method: Time kill assays were performed (in duplicate) essentially as described previously with slight modifications. Briefly, a few colonies of luminescent S. pneumoniae strain D39LUX or luminescent S. aureus ATCC 12600 (Xen29) from an overnight HBA were emulsified in normal saline and adjusted to A600 nm = 0.10 (equivalent to approx. 5 × 10^7 c.f.u. per ml) and the bacterial suspension further diluted 1:20 in saline. […] The compounds were serially diluted in 100% DMSO at 100× the final desired concentration and 100 μl of appropriate concentrations added to each 10 ml preparation. Duplicate cultures were incubated at 37°C (+ 5% CO2 for S. pneumoniae D39), with samples withdrawn at 0, 0.5, 1, 2, 4, 6, 8 and 24 h, serially diluted 10-fold and plated on HBA overnight at 37°C (+ 5% CO2 for S. pneumoniae D39) for bacterial enumeration.

[2] = test system: S. aureus Xen29; test: Point of resistance assay (serial passage)
[3] = Microsomal metabolic stability; assay type: in vitro ADME; details: for half-life at 0.4 μg/ml: 0.4 μg/ml compound, 0.4 mg/ml protein, NADPH
Method: The metabolic stability assay was performed by incubating 0.4 μg/ml of each test compound with human and mouse liver microsomes (Xenotech, Lot# 1210057 and 1310211, respectively) suspended in 0.1 M pH 7.4 phosphate buffer at 37°C and 0.4 mg/ml protein concentration. The metabolic reaction was initiated by the addition of an NADPH-regenerating system (i.e. NADPH is the cofactor required for CYP450-mediated metabolism) and quenched at various time points over a 60 min incubation period by the addition of acetonitrile containing diazepam as internal standard. Control samples (containing no NADPH) were included (and quenched at 2, 30 and 60 min) to monitor for potential degradation in the absence of cofactor. Test compound concentration vs time data were fitted to an exponential decay function to determine the first-order rate constant for substrate depletion. This was used to calculate a degradation half-life (T1/2), in vitro intrinsic clearance (CLINT), microsome-predicted blood clearance (CLblood) and a microsome-predicted hepatic extraction ratio (EH) according to the in vitro half-life method of Obach[53].

[4] = Pharmacokinetics after IV administration; assay type: in vivo, mouse; details: for clearance: read-out: Plasma CL; for half-life: read-out: Apparent t½ (converted); for Vd: read-out: Plasma VSS
Method: Mice had access to food and water ad libitum throughout the pre- and post-dose sampling period. The Animal Ethics Committee of the Monash Institute of Pharmaceutical Sciences reviewed and approved all animal PK experiments (approval number MIPS.2013.33). The PK studies were conducted in compliance with the Australian Code of Practice for the Care and Use of Animals for Scientific Purposes (7th Edition 2004). […] For both the IV and IP administration, a maximum of two samples were obtained from each mouse, with samples being taken either via submandibular bleed (approximately 120 μl; conscious sampling) or terminal cardiac puncture (0.6 ml; under inhaled Isoflurane anesthesia). No urine samples were collected as mice were housed in bedded cages during the study. […] Mice were humanely sacrificed by cervical dislocation while under anaesthesia (using gaseous isoflurane) at the end of experiments. Blood was collected directly into polypropylene Eppendorf tubes containing heparin as anti-coagulant, and stabilization cocktail (containing Complete (a protease inhibitor cocktail with EDTA) and potassium fluoride) to minimize the potential for ex vivo degradation of the test compounds in blood/plasma samples. Once collected, blood samples were centrifuged immediately, supernatant plasma was removed, and stored at either -80°C (for the IV exposure) or at -20°C (for the IP exposure) until analysis by liquid chromatography-mass spectrometry (LC-MS). Following protein precipitation with acetonitrile, thawed plasma samples were analyzed by LC-MS (Waters Micromass Quattro Premier coupled to a Waters Acquity UPLC) using positive electrospray ionization operating in MRM mode.

[5] = test system: Hep G2; test: In vitro cytotoxicity, WST-1; assay type: cell-based; details: Homo sapiens, HepG2; 24 h exposure; read-out: IC50 values ± SEM
Source text: (§1) In order to ensure minimal off target mammalian cell cytotoxicity, we assayed NCL812, NCL195 and NCL219 for in vitro cytotoxicity using a panel of adherent mammalian cell lines: Caco-2 (human colorectal adenocarcinoma cell line), HEL 299 (non-cancerous human lung fibroblast cell line), Hep G2 (human hepatocellular carcinoma cell line), MDBK (normal bovine kidney cell line) and MCF7 (human mammary gland adenocarcinoma cell line). Cell lines were maintained in Dulbecco’s Modified Eagle’s Medium (DMEM; […] After 24 h incubation, media was removed, washed once with medium without antibiotics and fresh medium supplemented with 10% (vol/vol) FBS was added. […] Following exposure for 24 h, WST-1 reagent was added to each well at a final concentration of 10%. […] The IC50 value for each compound against each cell line was determined via non-linear regression (three parameters) using GraphPad Prism v6 software. The robustness of assays was confirmed with selected cell lines (Hep G2 and MDBK) seeded onto a 96–well Microwell Nunclon Delta Surface plate (Thermo Scientific Nunc; Cat No: 136101) at 5 × 10^4 cells per well.

[6] = test system: HEL 299; test: In vitro cytotoxicity, WST-1; assay type: cell-based; details: Homo sapiens, 24 h exposure, read-out: IC50 values ± SEM
Source text: as §1

[7] = test system: MCF7; test: In vitro cytotoxicity, WST-1; assay type: cell-based; details: Homo sapiens, 24 h exposure, read-out: IC50 values ± SEM
Source text: as §1

[8] = test system: Caco-2; test: In vitro cytotoxicity, WST-1; assay type: cell-based; details: Homo sapiens, 24 h exposure, read-out: IC50 values ± SEM
Source text: as §1

[9] = human, liver microsomes, pH 7.4, read-out: CLINT
[10] = human, hepatic extraction ratio
[11] = liver microsomes, pH 7.4, human
[12] = liver microsomes, pH 7.4, mouse
[13] = mouse, liver microsomes, pH 7.4, read-out: CLINT
[14] = mouse, hepatic extraction ratio
[15] = male, Swiss (outbred), mouse, plasma, iv, 5 mg/kg, male Swiss outbred mice, read-out: AUC0-inf
[16] = male, Swiss (outbred), mouse, plasma, iv, 5 mg/kg, male Swiss outbred mice
[17] = mouse, plasma, male Swiss outbred mice, IV 5 mg/kg
[18] = male Swiss outbred mice, IV 5 mg/kg, 5 mg/kg

CC1(C)S[C@@H]2[C@H](NC(=O)[C@H](N)c3ccccc3)C(=O)N2[C@H]1C(=O)O [Ampicillin]
Time to reduce the population below the limit of detection ([1]; 4× MIC): 8 h

CCCCCCCCCC(=O)N[C@@H](Cc1c[nH]c2ccccc12)C(=O)N[C@H](CC(N)=O)C(=O)N[C@@H](CC(=O)O)C(=O)N[C@@H]1C(=O)NCC(=O)N[C@@H](CCCN)C(=O)N[C@@H](CC(=O)O)C(=O)N[C@H](C)C(=O)N[C@@H](CC(=O)O)C(=O)NCC(=O)N[C@H](CO)C(=O)N[C@@H]([C@H](C)CC(=O)O)C(=O)N[C@@H](CC(=O)c2ccccc2N)C(=O)O[C@@H]1C [Daptomycin, daptomycin]
Resistance (fold MIC) over serial passage ([2]; by day 12 of the serial passage): 8 ×MIC | Day of serial passage by which resistance developed ([2]; daily serial passage): 5 days

Cc1ccc(/C=N/Nc2cc(N/N=C/c3ccc(C)cc3)nc(N)n2)cc1 [NCL195, 4,6-bis(2-((E)-4-methylbenzylidene)hydrazinyl)pyrimidin-2-amine]
MIC of colonies that grew after 72 h in the presence of NCL195 ([2]; 10^5 c.f.u. Xen29 in broth with 1×, 2× and 4× MIC): 1 × MIC | Resistance (fold MIC) over serial passage ([2]; 24 daily sequential cultures): ≤ 1 × MIC | microsomal CLint at 0.4 μg/ml [3, 9]: < 7 µL/min/mg | Predicted EH [3, 10]: <0.22 | Predicted CLblood ([3]; human, microsome-predicted): <5 mL/min/kg | half-life at 0.4 μg/ml [3, 11]: > 4.12 h | half-life at 0.4 μg/ml [3, 12]: > 4.12 h | microsomal CLint at 0.4 μg/ml [3, 13]: < 7 µL/min/mg | Predicted EH [3, 14]: <0.13 | Predicted CLblood ([3]; mouse, microsome-predicted): <16 mL/min/kg | AUC(0-inf) [4, 15]: 12.5 µM·h | clearance [4, 16]: 16.3 mL/min/kg | half-life [4, 17]: 2.4 h | Vd [4, 17]: 2.6 L/kg | IC50 [5]: 12 ± 0.1 µg/mL (≈ 33.4 µM) | IC50 [6]: 10.9 ± 0.2 µg/mL (≈ 30.3 µM) | IC50 [7]: 40.1 ± 0.2 µg/mL (≈ 112 µM) | IC50 [8]: 12.8 ± 0.1 µg/mL (≈ 35.6 µM) | Time to reduce the population below the limit of detection ([1]; 2× MIC): 6 h | Time to reduce the population below the limit of detection ([1]; 4× MIC): 4 h

C/C(=N\NC(=N)N/N=C(\C)c1ccc(C(C)(C)C)cc1)c1ccc(C(C)(C)C)cc1 [NCL219, (E)-N'-((E)-1-(4-(tert-butyl)phenyl)ethylidene)-2-(1-(4-(tert-butyl)phenyl)ethylidene)hydrazine-1-carboximidhydrazide]
microsomal CLint at 0.4 μg/ml [3, 9]: 94 µL/min/mg | Predicted EH [3, 10]: 0.79 | Predicted CLblood ([3]; human, microsome-predicted): 16 mL/min/kg | half-life at 0.4 μg/ml [3, 11]: 0.3 h | half-life at 0.4 μg/ml [3, 12]: 0.233 h | microsomal CLint at 0.4 μg/ml [3, 13]: 121 µL/min/mg | Predicted EH [3, 14]: 0.72 | Predicted CLblood ([3]; mouse, microsome-predicted): 87 mL/min/kg | IC50 [5]: 7.1 ± 0.1 µg/mL (≈ 17.5 µM) | IC50 [6]: 21.2 ± 0.2 µg/mL (≈ 52.3 µM) | IC50 [7]: > 128 µg/mL | IC50 [8]: 7.5 ± 0.1 µg/mL (≈ 18.5 µM)

Cl.N=C(NN=Cc1ccc(Cl)cc1)NN=Cc1ccc(Cl)cc1 [NCL812, 2,2'-bis[(4-chlorophenyl)methylene] carbonimidic dihydrazide hydrochloride]
Predicted CLblood ([3]; human, 0.4 μg/ml, pH 7.4): <5 mL/min/kg | microsomal CLint at 0.4 μg/ml ([3]; human, microsomes, pH 7.4): < 7 µL/min/mg | half-life at 0.4 μg/ml ([3]; microsomes, pH 7.4, human): > 4.12 h | half-life at 0.4 μg/ml ([3]; microsomes, pH 7.4, mouse): > 4.12 h | Predicted CLblood ([3]; mouse, 0.4 μg/ml, pH 7.4): <16 mL/min/kg | Predicted EH ([3]; mouse, 0.4 μg/ml, pH 7.4): <0.13 | microsomal CLint at 0.4 μg/ml ([3]; mouse, microsomes, pH 7.4): < 7 µL/min/mg | AUC(0-inf) [4, 18]: ~27.9^ a h*μM | Plasma CL [4, 18]: ~9.5^ a mL/min/kg | AUC(0-inf) [4, 15]: 27.9 µM·h | clearance [4, 16]: 9.5 mL/min/kg | Adverse signs after parenteral (IV) administration ([4]; mice, IV 5 mg/kg, 5 mg/kg): adverse neurological signs; also recorded: adverse clinical signs | half-life [4, 17]: ~8.2 h | Vd [4, 17]: ~5.9 L/kg | IC50 [5]: 9.4 ± 0.1 µg/mL | IC50 [6]: 4.6 ± 0.1 µg/mL | IC50 [7]: 12 ± 0.2 µg/mL | IC50 [8]: 8.2 ± 0.1 µg/mL
